From PMC12645437, “Orthogonal IMiD-Degron Pairs Induce Selective Protein Degradation in Cells” (ACS Chemical Biology, 2025)

Tests used:
[1] = tested on: library of 8380 IKZF3 degrons fused to EGFP in Jurkat cells; test: Pooled mutant ZF degron library screen (FACS EGFPlow vs EGFP+, NGS), 18 h; assay type: cell-based, human;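 on logFC: Log2 fold change of EGFPlow over EGFP+ representation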
[2] = target: T1, Q147A mutant degron (ANQS) fused to EGFP (Homo sapiens, UniProt Q96SW2+Q9UKT9, Q147A); test: Ratiometric EGFP:mCherry flow cytometry degradation assay, 18 h; assay type: cell-based; conditions: Jurkat, read-out: DMax Q147A/%
T1 construct: pLVX-Sprout-IKZF3 130-189aa Q147A (ANQS); expressed in transfected cells
T1 sequence (Q9UKT9 130-189 Q147A): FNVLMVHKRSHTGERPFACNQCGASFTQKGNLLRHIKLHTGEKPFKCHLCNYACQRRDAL
T1 sequence (Q96SW2 whole entry, the tested form may be a part): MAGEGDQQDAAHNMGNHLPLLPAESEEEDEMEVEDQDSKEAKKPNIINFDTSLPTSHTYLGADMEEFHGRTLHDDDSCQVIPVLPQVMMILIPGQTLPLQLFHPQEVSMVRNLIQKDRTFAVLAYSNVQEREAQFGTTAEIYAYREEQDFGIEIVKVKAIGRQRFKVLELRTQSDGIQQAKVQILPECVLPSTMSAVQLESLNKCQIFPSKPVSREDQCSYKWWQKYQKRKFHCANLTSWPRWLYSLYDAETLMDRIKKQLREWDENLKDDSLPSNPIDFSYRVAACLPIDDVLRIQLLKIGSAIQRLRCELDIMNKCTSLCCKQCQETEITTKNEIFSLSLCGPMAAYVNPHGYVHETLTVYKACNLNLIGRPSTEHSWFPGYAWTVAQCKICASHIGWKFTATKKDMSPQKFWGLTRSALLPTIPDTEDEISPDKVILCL
T1 sequence (Q16531 whole entry partner, the tested form may be a part): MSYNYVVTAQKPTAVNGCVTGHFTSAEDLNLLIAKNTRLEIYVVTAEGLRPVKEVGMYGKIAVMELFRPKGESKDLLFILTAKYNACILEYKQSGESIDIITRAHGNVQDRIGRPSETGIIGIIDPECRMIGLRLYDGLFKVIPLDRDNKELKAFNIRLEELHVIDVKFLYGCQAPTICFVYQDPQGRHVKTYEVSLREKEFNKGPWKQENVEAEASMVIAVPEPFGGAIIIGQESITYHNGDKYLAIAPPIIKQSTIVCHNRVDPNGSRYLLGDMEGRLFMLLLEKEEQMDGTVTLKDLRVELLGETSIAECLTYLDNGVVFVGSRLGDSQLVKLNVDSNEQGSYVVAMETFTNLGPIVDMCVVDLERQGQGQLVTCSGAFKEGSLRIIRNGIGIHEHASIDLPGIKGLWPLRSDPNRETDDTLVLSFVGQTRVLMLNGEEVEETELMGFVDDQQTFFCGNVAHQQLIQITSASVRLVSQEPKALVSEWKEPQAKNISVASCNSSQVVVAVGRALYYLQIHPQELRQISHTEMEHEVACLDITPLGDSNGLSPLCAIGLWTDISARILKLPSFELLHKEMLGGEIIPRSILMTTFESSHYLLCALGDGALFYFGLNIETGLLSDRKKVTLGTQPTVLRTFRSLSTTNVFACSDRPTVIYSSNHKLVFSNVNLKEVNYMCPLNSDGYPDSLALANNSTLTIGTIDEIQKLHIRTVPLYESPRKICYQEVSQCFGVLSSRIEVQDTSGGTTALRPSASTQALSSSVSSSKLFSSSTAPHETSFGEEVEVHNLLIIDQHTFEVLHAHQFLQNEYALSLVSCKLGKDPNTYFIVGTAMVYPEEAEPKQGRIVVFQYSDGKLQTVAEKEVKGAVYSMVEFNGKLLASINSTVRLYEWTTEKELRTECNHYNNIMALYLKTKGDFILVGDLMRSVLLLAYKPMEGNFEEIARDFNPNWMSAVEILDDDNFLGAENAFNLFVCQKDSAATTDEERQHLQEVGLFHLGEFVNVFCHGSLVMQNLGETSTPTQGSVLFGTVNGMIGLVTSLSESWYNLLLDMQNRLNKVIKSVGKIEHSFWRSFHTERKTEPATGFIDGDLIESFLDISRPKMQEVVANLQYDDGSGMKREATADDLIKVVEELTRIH

Dmax [2]: 82%
Compound: O=C1CCC(N2C(=O)c3ccccc3C2=O)C(=O)N1 (centres unmarked) [Compound 1, thalidomide, reference compound]
logFC ([1]; degron residues 146/147/149/150/152/153/154/155/167: FADQGAQFL): -3.13
logFC ([1]; degron residues 146/147/149/150/152/153/154/155/167: FADQGARFL): -2.69
logFC ([1]; degron residues 146/147/149/150/152/153/154/155/167: FADQGASFL): -3.41
logFC ([1]; degron residues 146/147/149/150/152/153/154/155/167: FADQGATFL): -2.79
logFC ([1]; degron residues 146/147/149/150/152/153/154/155/167: FADQGAVFL): -2.29
logFC ([1]; degron residues 146/147/149/150/152/153/154/155/167: FADQGAWFL): -2.86
logFC ([1]; degron residues 146/147/149/150/152/153/154/155/167: FADQGAYFL): -2.43
logFC ([1]; degron residues 146/147/149/150/152/153/154/155/167: FADVGAAFL): -1.13
logFC ([1]; degron residues 146/147/149/150/152/153/154/155/167: FADVGACFL): -2.56
logFC ([1]; degron residues 146/147/149/150/152/153/154/155/167: FADVGADFL): -2.99
logFC ([1]; degron residues 146/147/149/150/152/153/154/155/167: FADVGAEFL): -2.38
logFC ([1]; degron residues 146/147/149/150/152/153/154/155/167: FADVGAFFL): -1.98
logFC ([1]; degron residues 146/147/149/150/152/153/154/155/167: FADVGAGFL): -2.06
logFC ([1]; degron residues 146/147/149/150/152/153/154/155/167: FADVGAHFL): -2.25
logFC ([1]; degron residues 146/147/149/150/152/153/154/155/167: FADVGAIFL): -1.83
logFC ([1]; degron residues 146/147/149/150/152/153/154/155/167: FADVGAKFL): -1.45
logFC ([1]; degron residues 146/147/149/150/152/153/154/155/167: FADVGALFL): -2.47
logFC ([1]; degron residues 146/147/149/150/152/153/154/155/167: FADVGAMFL): -2.29
logFC ([1]; degron residues 146/147/149/150/152/153/154/155/167: FADVGANFL): -2.15
logFC ([1]; degron residues 146/147/149/150/152/153/154/155/167: FADVGAPFL): -0.92
logFC ([1]; degron residues 146/147/149/150/152/153/154/155/167: FADVGAQFL): -1.67
logFC ([1]; degron residues 146/147/149/150/152/153/154/155/167: FADVGARFL): -1.19
logFC ([1]; degron residues 146/147/149/150/152/153/154/155/167: FADVGASFL): -1.27
logFC ([1]; degron residues 146/147/149/150/152/153/154/155/167: FADVGATFL): -1.78
logFC ([1]; degron residues 146/147/149/150/152/153/154/155/167: FADVGAVFL): -2.08
logFC ([1]; degron residues 146/147/149/150/152/153/154/155/167: FADVGAWFL): -2.99
logFC ([1]; degron residues 146/147/149/150/152/153/154/155/167: FADVGAYFL): -2.07
Log2FC ([1]; degron residues 146/147/149/150/152/153/154/155/167: FQEIGAPFL): 3.7224
Log2FC ([1]; degron residues 146/147/149/150/152/153/154/155/167: FQEIGARFL): 3.7041
Log2FC ([1]; degron residues 146/147/149/150/152/153/154/155/167: FQEIGASFL): 3.7484
Log2FC ([1]; degron residues 146/147/149/150/152/153/154/155/167: FQEVGAQFL): 3.7719
Log2FC ([1]; degron residues 146/147/149/150/152/153/154/155/167: FQEVGARFL): 3.7061
Log2FC ([1]; degron residues 146/147/149/150/152/153/154/155/167: FQEVGATFL): 3.7446
Log2FC ([1]; degron residues 146/147/149/150/152/153/154/155/167: FQEVGAVFL): 3.7106
Log2FC ([1]; degron residues 146/147/149/150/152/153/154/155/167: FQNIGAIFL): 3.8114
Log2FC ([1]; degron residues 146/147/149/150/152/153/154/155/167: FQNIGAPFL): 3.7088
Log2FC ([1]; degron residues 146/147/149/150/152/153/154/155/167: FQNIGATFL, listed as Thal): 3.867
Log2FC ([1]; degron residues 146/147/149/150/152/153/154/155/167: FQNIGATFL, listed as Thalidomide): 3.8667
Log2FC ([1]; degron residues 146/147/149/150/152/153/154/155/167: FQPIGACFL): 3.7711
Log2FC ([1]; degron residues 146/147/149/150/152/153/154/155/167: FQPIGADFL, listed as Thal): 3.806
Log2FC ([1]; degron residues 146/147/149/150/152/153/154/155/167: FQPIGADFL, listed as Thalidomide): 3.8059
Log2FC ([1]; degron residues 146/147/149/150/152/153/154/155/167: FQPIGAIFL): 3.7924
Log2FC ([1]; degron residues 146/147/149/150/152/153/154/155/167: FQPIGASFL (QPIS), listed as Thal): 3.79
Log2FC ([1]; degron residues 146/147/149/150/152/153/154/155/167: FQPIGASFL (QPIS), listed as Thalidomide): 3.7900
Log2FC ([1]; degron residues 146/147/149/150/152/153/154/155/167: FQPVGAEFL): 3.7612
Log2FC ([1]; degron residues 146/147/149/150/152/153/154/155/167: FQPVGAKFL, listed as Thal): 3.962
Log2FC ([1]; degron residues 146/147/149/150/152/153/154/155/167: FQPVGAKFL, listed as Thalidomide): 3.9618
Log2FC ([1]; degron residues 146/147/149/150/152/153/154/155/167: FQPVGAPFL, listed as Thal): 3.872
Log2FC ([1]; degron residues 146/147/149/150/152/153/154/155/167: FQPVGAPFL, listed as Thalidomide): 3.8717
Log2FC ([1]; degron residues 146/147/149/150/152/153/154/155/167: FQPVGATFL): 3.7941
Log2FC ([1]; degron residues 146/147/149/150/152/153/154/155/167: FQPVGAVFL): 3.7460
Log2FC ([1]; degron residues 146/147/149/150/152/153/154/155/167: LQPIGFVCL): 3.7517
